Data on seven molecules can be found in patent publication US20200206233A1 (INTEGRAL BIOSCIENCES PRIVATE LIMITED, priority 2018, published 2020).

Some results are limits rather than exact numbers.

Assay [1] has as its target T1, IDH1 mutant (R132H) (Homo sapiens, UniProt O75874, R132H).
T1 construct: purchased BPS Bioscience 71099-2
In words: Mutant IDH1-R132H Fluorescence Assay (Resazurin based). The format is biochemical. Conditions: 10 nM IDH1 R132H, 4 mM α-ketoglutarate, NADPH, 1.5 h at room temperature. A digest of the protocol: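 Recombinant IDH1 R132H (10 nM) was run with α-ketoglutarate (4 mM) and NADPH ([…]) for 1.5 h at room temperature in Tris pH buffer with MgCl2, BSA and mercaptoethanol. Remaining NADPH was detected via diaphorase/resazurin fluorescence (ex 540/em 590 nm). IC50 came from a 4-parameter logistic fit.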
Background: The colour change of resazurin is a common sign of viable cells or microbes.

Assay [2] deals with T2, IDH1-WT (Homo sapiens, UniProt O75874).
T2 construct: purchased BPS Bioscience 71075-2
In words: IDH1-WT Fluorescence Assay (Resazurin based). It is filed as biochemical. Particulars: 1 nM IDH1-WT, 200 μM isocitrate, 15 μM NADP+, 30 min at room temperature. The procedure, abridged:
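Compounds (3-fold dilutions, 0.5% DMSO) preincubated 5 min with 200 μM isocitrate and 15 μM NADP+ in Tris/MgCl2 buffer, then 1 nM IDH1-WT added for 30 min at room temperature in the dark. NADPH detected via resazurin/diaphorase (15 min, ex 540/em 590 nm); IC50 by four-parameter logistic fit of % inhibition.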

Assay [3] addresses T3, mutant IDH1 (R132C) HT1080 cells (Homo sapiens, UniProt O75874, R132C).
T3 construct: host or cells: HT1080
In words: Cellular 2-HG assay using mutant IDH1 (R132C) HT1080 cells. The format is cell-based. Conditions: 48 h treatment, 0.003 to 3 μM, 2-HG in cell culture media. Here is the method:
HT1080 (ATCC® CCL-121™) cells were plated in a 12 well plate (Nunc™ Cell-Culture Treated Multidish; Cat #150628) at a cell density of 5×10^4 cells/well. Cells were then treated with various concentrations of test/reference compounds (ranging from 0.003 to 3 μM) or vehicle for 48 h under cell culture conditions (in CO2 incubator, 5% CO2, 37° C.). Metabolites were extracted from cell culture media by precipitation method and IC50 values of compounds were determined by Resazurin based Fluorescence assay. Assay buffer contained 100 mM HEPES pH 8.0, 100 μM NAD^+ (Sigma; Cat # N1630-100MG), […] HGDH, 5 μM resazurin (Cat #62758-13-8, Sigma) and 0.01 U/ml diaphorase (Cat # D2197-300UN, Sigma). Total assay volume was 100 μl. 75 μl of assay buffer was added to 25 μl sample volume (supernatant) and incubated at RT in the dark for 30 min in black 96-well plates (Thermo Scientific). Fluorometric detection was done using a Synergy Neo Plate reader (BioTek, Winooski) at single excitation of 540 nm and emission at 590 nm respectively).
The % activity of test samples was calculated as (Sample−Min)×100/(Max−Min). [Max: DMSO control, complete reaction with enzyme with DMSO and Min: No enzyme with DMSO]. Percent inhibition (100−% activity) was fitted to the “four-parameter logistic model” in XLfit for determination of IC50 values.

Assay [4] deals with T4, IDH2 mutant (R140Q) (Homo sapiens, UniProt P48735, R140Q).
T4 construct: purchased BPS Bioscience 71100-2
T4 sequence (P48735 40-452 R140Q): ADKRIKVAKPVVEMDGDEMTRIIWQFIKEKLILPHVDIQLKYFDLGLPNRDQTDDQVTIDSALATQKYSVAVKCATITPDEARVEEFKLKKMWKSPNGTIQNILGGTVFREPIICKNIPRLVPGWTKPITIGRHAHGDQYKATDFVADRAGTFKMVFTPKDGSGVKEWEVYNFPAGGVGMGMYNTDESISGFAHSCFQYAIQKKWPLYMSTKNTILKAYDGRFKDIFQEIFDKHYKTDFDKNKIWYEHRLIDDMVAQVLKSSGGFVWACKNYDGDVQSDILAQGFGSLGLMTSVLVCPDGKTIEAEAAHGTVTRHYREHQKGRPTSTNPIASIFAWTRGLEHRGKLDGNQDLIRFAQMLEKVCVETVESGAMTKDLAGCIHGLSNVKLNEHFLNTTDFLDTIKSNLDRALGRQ
In words: Mutant IDH2-R140Q Fluorescence Assay (Resazurin based). It is filed as biochemical. Particulars: 5 nM IDH2 R140Q, 4 hr pre-incubation, 1 mM α-ketoglutarate, 5 μM NADPH, 2 h. A digest of the protocol: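 Recombinant IDH2 R140Q (5 nM) pre-incubated 4 h at 25 °C with 3-fold diluted compounds in Tris/NaCl/MgCl2 buffer, then 2 h reaction with 1 mM α-ketoglutarate and 5 μM NADPH. Remaining NADPH detected via diaphorase/resazurin fluorescence (ex 540/em 590 nm); IC50 from four-parameter logistic fit of % inhibition vs DMSO and no-enzyme controls.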

T2 sequence (O75874 whole entry): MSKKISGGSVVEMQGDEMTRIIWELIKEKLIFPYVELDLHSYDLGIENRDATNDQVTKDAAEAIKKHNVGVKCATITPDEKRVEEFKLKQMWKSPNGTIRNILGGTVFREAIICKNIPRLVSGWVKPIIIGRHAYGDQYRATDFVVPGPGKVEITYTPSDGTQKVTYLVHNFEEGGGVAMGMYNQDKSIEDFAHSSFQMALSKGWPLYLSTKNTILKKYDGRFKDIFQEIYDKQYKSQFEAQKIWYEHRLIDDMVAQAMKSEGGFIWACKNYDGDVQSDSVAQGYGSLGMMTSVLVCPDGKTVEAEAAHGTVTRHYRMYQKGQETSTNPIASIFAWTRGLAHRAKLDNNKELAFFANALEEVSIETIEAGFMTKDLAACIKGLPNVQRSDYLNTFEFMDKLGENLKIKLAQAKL
T3 sequence (O75874 2-414 R132C limits assumed): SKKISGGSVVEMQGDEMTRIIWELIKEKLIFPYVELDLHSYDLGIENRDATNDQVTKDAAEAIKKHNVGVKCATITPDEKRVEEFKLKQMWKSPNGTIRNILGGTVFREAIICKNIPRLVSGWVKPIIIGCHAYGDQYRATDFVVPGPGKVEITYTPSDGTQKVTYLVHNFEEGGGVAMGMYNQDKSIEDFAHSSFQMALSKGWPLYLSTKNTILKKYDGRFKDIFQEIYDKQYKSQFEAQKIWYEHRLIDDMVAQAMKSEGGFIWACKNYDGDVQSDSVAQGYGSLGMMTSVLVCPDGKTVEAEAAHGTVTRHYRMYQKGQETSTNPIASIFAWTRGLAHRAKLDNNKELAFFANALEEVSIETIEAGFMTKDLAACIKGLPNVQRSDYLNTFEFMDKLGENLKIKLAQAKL
T1 sequence (O75874 whole entry R132H): as the sequence (O75874 whole entry) above, with R132H counted along it

The term IC50 denotes the concentration needed to halve the response being measured. Take `CC[C@H]1COC(=O)N1c1nc(C)nc(N[C@@H](C)c2cc3cc(Cl)ccc3[nH]c2=O)n1` [Compound 1.38, (S)-3-(4-((S)-1-(6-chloro-2-oxo-1,2-dihydroquinolin-3-yl)ethylamino)-6-methyl-1,3,5-triazin-2-yl)-4-ethyloxazolidin-2-one]: the IC50 in assay [1] was 0.144 µM; in assay [2], over 50 µM; in assay [3], 0.634 µM; in assay [4], over 50 µM.

Take `CC[C@H]1COC(=O)N1c1nc(C)nc(N[C@@H](C)c2cn(-c3ccc(Cl)cc3)cn2)n1` [Compound 1.50, (S)-3-(4-((S)-1-(1-(4-chlorophenyl)-1H-imidazol-4-yl)ethylamino)-6-methyl-1,3,5-triazin-2-yl)-4-ethyloxazolidin-2-one]: the IC50 was 0.456 µM in assay [1], over 50 µM in assay [2], 0.413 µM in assay [3] and over 50 µM in assay [4].

In the case of `CC[C@H]1COC(=O)N1c1nc(C)nc(N[C@@H](C)c2cc3cc(Cl)c(OC)cc3[nH]c2=O)n1` [Compound 1.42, (S)-3-(4-((S)-1-(6-chloro-7-methoxy-2-oxo-1,2-dihydroquinolin-3-yl)ethylamino)-6-methyl-1,3,5-triazin-2-yl)-4-ethyloxazolidin-2-one], the half-inhibitory concentration (IC50) in assay [1] is 0.084 µM; in assay [2], over 50 µM; in assay [3], 0.556 µM; in assay [4] it was over 50 µM.

For the molecule `Cc1nc(N[C@@H](C)c2ccc(Oc3ccccc3)cc2)nc(N2C(=O)OC[C@@H]2[C@H](C)F)n1` [Compound 1.64, (R)-4-((S)-1-fluoroethyl)-3-(4-methyl-6-((S)-1-(4-phenoxyphenyl)ethylamino)-1,3,5-triazin-2-yl)oxazolidin-2-one], the IC50 in assay [1] is 0.227 µM; in assay [2], over 50 µM; in assay [3], 0.036 µM; in assay [4], over 50 µM.

On to `Cc1nc(N[C@@H](C)c2cc3cc(Cl)ccc3[nH]c2=O)nc(N2C(=O)OC[C@@H]2[C@H](C)F)n1` [Compound 1.59, (R)-3-(4-((S)-1-(6-chloro-2-oxo-1,2-dihydroquinolin-3-yl)ethylamino)-6-methyl-1,3,5-triazin-2-yl)-4-((S)-1-fluoroethyl) oxazolidin-2-one], for which the IC50 in assay [1] was 0.178 µM; in assay [2], over 50 µM; in assay [3], 0.271 µM; in assay [4] it was over 50 µM.

Consider `CC[C@H]1COC(=O)N1c1nc(C)nc(N[C@@H](C)c2cc3cc(Cl)c(OC(C)C)cc3[nH]c2=O)n1` [Compound 1.104, (S)-3-(4-((S)-1-(6-chloro-7-isopropoxy-2-oxo-1,2-dihydroquinolin-3-yl)ethylamino)-6-methyl-1,3,5-triazin-2-yl)-4-ethyloxazolidin-2-one], for which the 50% inhibitory concentration (IC50) in assay [1] is 0.075 µM; in assay [2], over 50 µM; in assay [3] it was 0.094 µM; in assay [4], over 50 µM.

Regarding `CC[C@H]1COC(=O)N1c1nc(C)nc(N[C@@H](C)c2ccc(Oc3ccccc3)cc2)n1` [Compound 1.44, (S)-4-ethyl-3-(4-methyl-6-((S)-1-(4-phenoxyphenyl)ethylamino)-1,3,5-triazin-2-yl)oxazolidin-2-one], the half-maximal inhibitory concentration (IC50) in assay [1] is 0.209 µM; in assay [2], over 50 µM; in assay [3], 0.168 µM; in assay [4], over 50 µM.
